Measured values reported in patent US20250145633A1, “SUBSTITUTED FURANOPYRIMIDINE COMPOUNDS AS PDE1 INHIBITORS” (Dart NeuroScience, LLC, priority 2017, published 2025).

molecular target: human PDE1B enzyme (Homo sapiens (Human), UniProt Q01064); test: IMAP TR-FRET PDE1B enzymatic assay; assay type: biochemical; conditions: negative log of half-maximal molar inhibitory concentration; 200 nM FAM-cAMP; values given as bins
Outline: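 Full-length GST-tagged human PDE1B (250 pg/well) in IMAP BSA buffer with 10 U/ml calmodulin and 2.5 mM CaCl2; compound pre-incubated 5 min at room temperature, then 200 nM (final) FAM-cAMP for 30 min. IMAP binding reagent/Tb added, 1 h; TR-FRET 520/490 ratio read. IC50 from sigmoidal dose-response fit.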

SMILES | PDE1b (pIC50)
COc1ncc(C2=CCN(C(=O)c3c(C)oc4ncnc(NC5(C)CC5)c34)CC2)cc1F [Example 13, 5-[4-(5-Fluoro-6-methoxypyridin-3-yl)-1,2,3,6-tetrahydropyridine-1-carbonyl]-6-methyl-N-(1-methylcyclopropyl)furo[2,3-d]pyrimidin-4-amine] | >8
Cc1oc2ncnc(NC3(C)CC3)c2c1C(=O)NCCCN1CCCC1 [Example 752, 6-Methyl-4-[(1-methylcyclopropyl)amino]-N-[3-(pyrrolidin-1-yl)propyl]furo[2,3-d]pyrimidine-5-carboxamide] | <6
COc1cnc(C2=CCN(C(=O)c3c(C)oc4ncnc(NC5(C)CC5)c34)CC2)cn1 [Example 784, 5-[4-(5-Methoxypyrazin-2-yl)-1,2,3,6-tetrahydropyridine-1-carbonyl]-6-methyl-N-(1-methylcyclopropyl)furo[2,3-d]pyrimidin-4-amine] | >8
Cc1oc2ncnc(NC3(C)CC3)c2c1C(=O)NC1(C2CCC2)CC1 [Example 150, N-(1-Cyclobutylcyclopropyl)-6-methyl-4-[(1-methylcyclopropyl)amino]furo[2,3-d]pyrimidine-5-carboxamide] | >8
Cc1oc2ncnc(NC3(C)CC3)c2c1C(=O)N1CCc2cc(OCF)ccc2C1 [Example 765, 5-[6-(Fluoromethoxy)-1,2,3,4-tetrahydroisoquinoline-2-carbonyl]-6-methyl-N-(1-methylcyclopropyl)furo[2,3-d]pyrimidin-4-amine] | >8
COc1ccc(C2=CCN(C(=O)c3c(C)oc4ncnc(NC5(C)CC5)c34)CC2)nc1 [Example 785, 5-[4-(5-Methoxypyridin-2-yl)-1,2,3,6-tetrahydropyridine-1-carbonyl]-6-methyl-N-(1-methylcyclopropyl)furo[2,3-d]pyrimidin-4-amine] | >8

same assay, conditions: negative log of half-maximal molar inhibitory concentration; 200 nM FAM-cAMP; values given as bins; read-out: PDE1b (pIC50) (converted)

SMILES | IC50
Cc1nc(NC(=O)c2c(C)oc3ncnc(NC4(C)CC4)c23)oc1C [Example 442, N-(Dimethyl-1,3-oxazol-2-yl)-6-methyl-4-[(1-methylcyclopropyl)amino]furo[2,3-d]pyrimidine-5-carboxamide] | 0.01 to 0.1 µM
Cc1oc2ncnc(NC3(C)CC3)c2c1C(=O)NC1(C#N)CCC1 [Example 91, N-(1-Cyanocyclobutyl)-6-methyl-4-[(1-methylcyclopropyl)amino]furo[2,3-d]pyrimidine-5-carboxamide] | 0.01 to 0.1 µM
Cc1oc2ncnc(NC3(C)CC3)c2c1C(=O)N(C)Cc1ccccn1 [Example 214, N,6-Dimethyl-4-[(1-methylcyclopropyl)amino]-N-(pyridin-2-ylmethyl)furo[2,3-d]pyrimidine-5-carboxamide] | 0.1 to 1 µM
Cc1oc2ncnc(NC3(C)CC3)c2c1C(=O)N1CC2C(C1)C2(C)C (stereo not drawn) [Example 278, 5-{6,6-Dimethyl-3-azabicyclo[3.1.0]hexane-3-carbonyl}-6-methyl-(1-methylcyclopropyl)furo[2,3-d]pyrimidin-4-amine] | 0.01 to 0.1 µM
Cc1oc2ncnc(NC3(C)CC3)c2c1C(=O)NC1CCCc2cccnc21 (stereo not drawn) [Example 310, 6-Methyl-4-[(1-methylcyclopropyl)amino]-N-(5,6,7,8-tetrahydroquinolin-8-yl)furo[2,3-d]pyrimidine-5-carboxamide] | 0.1 to 1 µM
Cc1oc2ncnc(NC3(C)CC3)c2c1C(=O)NC12CC3CC(CC(C3)C1)C2 [Example 270, N-(Adamantan-1-yl)-6-methyl-4-[(1-methylcyclopropyl)amino]furo[2,3-d]pyrimidine-5-carboxamide] | < 0.01 µM
Cc1oc2ncnc(NC3(C)CC3)c2c1C(=O)NCc1noc(C(F)(F)F)n1 [Example 457, 6-Methyl-4-[(1-methylcyclopropyl)amino]-N-{[5-(trifluoromethyl)-1,2,4-oxadiazol-3-yl]methyl}furo[2,3-d]pyrimidine-5-carboxamide] | 0.01 to 0.1 µM
Cc1oc2ncnc(NC3(C)CC3)c2c1C(=O)N1C[C@@H]2C(c3ccccn3)[C@@H]2C1 (stereo partly drawn) [Example 30, 6-methyl-N-(1-methylcyclopropyl)-5-[(1R,5S,6S)-6-(pyridin-2-yl)-3-azabicyclo[3.1.0]hexane-3-carbonyl]furo[2,3-d]pyrimidin-4-amine] | 0.01 to 0.1 µM
Cc1oc2ncnc(NC3(C)CC3)c2c1C(=O)N1CCn2ccnc2C1 [Example 269, 5-{5H,6H,7H,8H-Imidazo[1,2-a]pyrazine-7-carbonyl}-6-methyl-N-(1-methylcyclopropyl)furo[2,3-d]pyrimidin-4-amine] | 0.01 to 0.1 µM
Cc1oc2ncnc(NC3(C)CC3)c2c1C(=O)N1CCc2ccccc2C1 [Example 233, 6-Methyl-N-(1-methylcyclopropyl)-5-(1,2,3,4-tetrahydroisoquinoline-2-carbonyl)furo[2,3-d]pyrimidin-4-amine] | 0.01 to 0.1 µM
Cc1oc2ncnc(NC3(C)CC3)c2c1C(=O)N1CCc2c(ncnc2N2CC[C@H](F)C2)C1 [Example 786, 5-{4-[(3S)-3-Fluoropyrrolidin-1-yl]-5H,6H,7H,8H-pyrido[3,4-d]pyrimidine-7-carbonyl}-6-methyl-N-(1-methylcyclopropyl)furo[2,3-d]pyrimidin-4-amine] | 0.01 to 0.1 µM
Cc1oc2ncnc(NC3(C)CC3)c2c1C(=O)N1CCC(c2ncc(C(F)(F)F)cn2)CC1 [Example 431, 6-Methyl-N-(1-methylcyclopropyl)-5-{4-[5-(trifluoromethyl)pyrimidin-2-yl]piperidine-1-carbonyl}furo[2,3-d]pyrimidin-4-amine] | 0.01 to 0.1 µM
Cc1oc2ncnc(NC3(C)CC3)c2c1C(=O)NCc1cc(-c2ccc(F)cc2)on1 [Example 325, N-{[5-(4-Fluorophenyl)-1,2-oxazol-3-yl]methyl}-6-methyl-4-[(1-methylcyclopropyl)amino]furo[2,3-d]pyrimidine-5-carboxamide] | 0.01 to 0.1 µM
COc1ccc(CNC(=O)c2c(C)oc3ncnc(NC4(C)CC4)c23)c(Cl)c1 [Example 551, N-[(2-Chloro-4-methoxyphenyl)methyl]-6-methyl-4-[(1-methylcyclopropyl)amino]furo[2,3-d]pyrimidine-5-carboxamide] | 0.01 to 0.1 µM
Cc1oc2ncnc(NC3(C)CC3)c2c1C(=O)N1CCn2nccc2C1 [Example 683, 6-Methyl-N-(1-methylcyclopropyl)-5-{4H,5H,6H,7H-pyrazolo[1,5-a]pyrazine-5-carbonyl}furo[2,3-d]pyrimidin-4-amine] | 0.01 to 0.1 µM
Cc1oc2ncnc(NC3(C)CC3)c2c1C(=O)N1CCc2nc(F)ncc2C1 [Example 303, 5-{2-Fluoro-5H,6H,7H,8H-pyrido[4,3-d]pyrimidine-6-carbonyl}-6-methyl-N-(1-methylcyclopropyl)furo[2,3-d]pyrimidin-4-amine] | 0.1 to 1 µM
COc1ncnc2c1CN(C(=O)c1c(C)oc3ncnc(NC4(C)CC4)c13)C2 [Example 622, 5-{4-Methoxy-5H,6H,7H-pyrrolo[3,4-d]pyrimidine-6-carbonyl}-6-methyl-N-(1-methylcyclopropyl)furo[2,3-d]pyrimidin-4-amine] | 0.1 to 1 µM
Cc1oc2ncnc(NC3(C)CC3)c2c1C(=O)N1CCc2c(C#N)ncnc2C1 [Example 24, 7-(6-Methyl-4-((1-methylcyclopropyl)amino)furo[2,3-d]pyrimidine-5-carbonyl)-5,6,7,8-tetrahydropyrido[3,4-d]pyrimidine-4-carbonitrile] | 0.1 to 1 µM
